In test [1] the target is T1, Carbonic anhydrase 1 (Drosophila melanogaster, UniProt Q9V396).
T1 sequence (Q9V396 whole entry): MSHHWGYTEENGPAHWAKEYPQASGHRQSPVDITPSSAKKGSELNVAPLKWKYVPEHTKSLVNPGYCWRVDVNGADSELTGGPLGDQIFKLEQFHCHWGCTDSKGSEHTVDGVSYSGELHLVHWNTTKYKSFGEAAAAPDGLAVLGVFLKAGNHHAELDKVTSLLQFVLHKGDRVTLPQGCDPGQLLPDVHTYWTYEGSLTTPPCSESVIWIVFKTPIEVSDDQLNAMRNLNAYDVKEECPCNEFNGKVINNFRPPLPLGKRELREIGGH
In words: Inhibition of Drosophila melanogaster recombinant carbonic anhydrase-1 expressed in Escherichia coli BL21 (DE3) preincubated for 15 mins by CO2 hydration stopped-flow assay.

Test [2] concerns the target T2, Carbonic anhydrase 2, isoform A (Drosophila melanogaster, UniProt Q9VTU8).
T2 sequence (Q9VTU8 whole entry): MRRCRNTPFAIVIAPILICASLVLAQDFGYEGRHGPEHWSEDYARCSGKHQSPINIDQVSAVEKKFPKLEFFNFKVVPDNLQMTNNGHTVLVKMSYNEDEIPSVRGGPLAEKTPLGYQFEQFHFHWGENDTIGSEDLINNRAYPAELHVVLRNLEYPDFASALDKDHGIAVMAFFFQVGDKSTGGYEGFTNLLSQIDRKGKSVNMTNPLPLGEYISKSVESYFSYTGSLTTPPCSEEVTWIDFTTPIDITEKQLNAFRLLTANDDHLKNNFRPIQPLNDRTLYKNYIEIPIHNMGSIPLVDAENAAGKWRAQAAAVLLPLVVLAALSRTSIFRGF
In words: Inhibition of Drosophila melanogaster recombinant carbonic anhydrase-2 expressed in Escherichia coli BL21 (DE3) preincubated for 15 mins by CO2 hydration stopped-flow assay.

Test [3] in a line: Inhibition of Drosophila melanogaster recombinant beat carbonic anhydrase expressed in Escherichia coli BL21 (DE3) preincubated for 15 mins by CO2 hydration stopped-flow assay.

Structures can show the parent of a compound that is named as a salt.

Take `S=C(S)N1CCCC1`: the values for the Ki in test [1] and in test [2] were 135 nM and 4.7 nM, respectively.

As to `CN1CCN(NC(=S)S)CC1`, the figures for the Ki in test [1] and in test [2] were 0.9 nM and 13.8 nM, respectively.

`S=C(S)NCCN1CCOCC1`: the Ki amounted to 12.1 nM in test [1] and 10.4 nM in test [2].

Regarding `S=C(S)NCc1ccncc1`, the values for the inhibitory constant (Ki) in test [1] and in test [2] were 35.1 nM and 58.8 nM, respectively.

For the compound `S=C(S)NCCN1CCCCC1`, the inhibition constant (Ki) in test [1] was 57.1 nM; in test [2], 26.7 nM.

As for `O=C(O)CNC(=S)S`, the figures for the Ki in test [1] and in test [2] were 123 nM and 76.5 nM, respectively.

As for `OCCN(CCO)C(=S)S`, the Ki in test [1] was determined as 3.2 nM; in test [2], 134 nM.

In the case of `O=C(O)[C@@H]1CCCN1C(=S)S`, the inhibition constant Ki in test [1] is 1.4 nM; in test [2], 13.6 nM.

On to `S=C(S)NCCN(CCNC(=S)S)CNC(=S)S`, for which the inhibitory constant (Ki) was found to be 134 nM in test [1] and 1.5 nM in test [2].

For the compound `S=C(S)Nc1cccs1`, the figures for the Ki in test [1] and in test [2] were 0.5 nM and 3.9 nM, respectively.

As to `NCCCn1ccnc1.S=C(S)NCCCn1ccnc1`, the inhibitory constant (Ki) in test [1] was 0.9 nM; in test [2] it was 24.1 nM.

Turning to `CCC(C)NC(=S)S` (racemic), the Ki in test [1] came to 325 nM; in test [2] it was 0.9 nM.

In the case of `CC(=O)Nc1nnc(S(N)(=O)=O)s1` [ACETAZOLAMIDE], in test [3], the Ki came out at 49 nM.

For `CCCCN(CCCC)C(=S)S` [DIBUTYLCARBAMODITHIOATE SODIUM SALT], the results for the Ki in test [1] and in test [2] were 17.1 nM and 0.5 nM, respectively.

`CCCCCCN(CCCCCC)C(=S)S` [DIHEXYLCARBAMODITHIOATE SODIUM SALT]: the values for the inhibition constant Ki in test [1] and in test [2] were 1.4 nM and 3.8 nM, respectively.

With `CC(C)CN(CC(C)C)C(=S)S` [DIISOBUTYLCARBODITHIOIC ACID SODIUM SALT], the inhibition constant (Ki) worked out at 20.2 nM in test [1] and 0.9 nM in test [2].

For the compound `CCCN(CCC)C(=S)S` [DIPROPYLCARBAMODITHIOATE SODIUM SALT], the inhibition constant Ki worked out at 23.4 nM in test [1] and 3.9 nM in test [2].

With `CCN(CC)C(=S)S` [DITIOCARB SODIUM], the inhibition constant Ki in test [1] came out at 2350 nM; in test [2], 654 nM.

For the compound `CCCCN(CC)C(=S)S` [ETHYLBUTYLCARBAMODITHIOATE SODIUM SALT], the Ki in test [1] amounted to 10.5 nM; in test [2], 21.9 nM.

As to `S=C(S)N1CCOCC1` [MORPHOLINECARBAMODITHIOATE SODIUM SALT], the inhibition constant Ki in test [1] was determined as 13.8 nM; in test [2] it was 0.8 nM.

In the case of `S=C(S)N1CCN(C(=S)S)CC1` [PIPERAZINECARBAMODITHIOATE DISODIUM SALT], the Ki in test [1] amounted to 0.9 nM; in test [2], 21.6 nM.

For `S=C(S)NN1CCOCC1` [POTASSIUM MORPHOLINOCARBAMODITHIOATE], the figures for the Ki in test [1] and in test [2] were 13.1 nM and 20.7 nM, respectively.

As to `CN(Cc1ccccc1)C(=S)S` [SODIUM BENZYL(METHYL)CARBAMODITHIOATE], the results for the inhibition constant (Ki) in test [1] and in test [2] were 50.2 nM and 12.4 nM, respectively.

Regarding `S=C(S)NCc1ccccc1` [SODIUM BENZYLCARBAMODITHIOATE], the inhibition constant (Ki) in test [1] was found to be 0.8 nM; in test [2], 213 nM.

As for `CN(C)C(=S)S` [SODIUM DIMETHYLCARBAMODITHIOATE], the inhibition constant (Ki) was 3460 nM in test [1] and 769 nM in test [2].

For `CN(C(=S)S)c1ccccc1` [SODIUM METHYL(PHENYL)CARBAMODITHIOATE], the Ki in test [1] amounted to 67.1 nM; in test [2], 5.9 nM.

Turning to `S=C(S)Nc1ccccc1` [TRIETHYLAMMONIUM PHENYLCARBAMODITHIOATE], the Ki in test [1] was found to be 21.4 nM; in test [2] it was 33.9 nM.

By Ki is commonly meant a measure of affinity in units of concentration, obtained from inhibition or displacement.
